Assays:
[1] = Dynamic Vapour Sorption (DVS) measurements; type: physicochemical
Excerpt: Dynamic Vapour Sorption (DVS) measurements were made for the compound of Example 12 by exposing a solid sample to controlled relative humidity (% RH) and weight change recorded with time on an automated water sorption analyser.

[2] = Preliminary analysis of hygroscopicity / hydration state; type: physicochemical; conditions: solid compound

Q: For `CCCCOc1ncc(C(C)=O)cc1-c1nc2c(CC)n(C3CN(CC)C3)nc2c(=O)[nH]1.O=S(=O)(O)c1ccccc1` [Example 12, 5-(5-Acetyl-2-butoxy-3-pyridinyl)-3-ethyl-2-(1-ethyl-3-azetidinyl)-2,6dihydro-7H-pyrazolo[4,3-d]pyrimidin-7-one benzenesulfonate], which “weight lost on drying (sorption/desorption isotherm)” value ([1]; DVS, loss due to residual solvent or surface moisture) is on record?
A: Its value is 0.9%.

Q: What about the hygroscopicity ([1]; solid sample exposed to controlled relative humidity) of the same molecule?
A: The hygroscopicity was “non-hygroscopic”.

Q: For `CCCCOc1ncc(C(C)=O)cc1-c1nc2c(CC)n(C3CN(CC)C3)nc2c(=O)[nH]1` [compound 1A, 5-(5-Acetyl-2-butoxy-3-pyridinyl)-3-ethyl-2-(1-ethyl-3-azetidinyl)-2,6-dihydro-7H-pyrazolo[4,3-d]pyrimidin-7-one], which “hygroscopicity (preliminary analysis)” value [2] is on record?
A: Its value is “anhydrous and non-hygroscopic”.

From patent publication US6809200B2, “Process for the preparation of pyrazolo[4,3-d]pyrimidin-7-one compounds and intermediates thereof” (Pfizer Inc., priority 2000, dated 2004)
